# Source: US5169944A, “Methods and compositions for the enteral administration of hepatobiliary MRI contrast agents” (Board of Regents of the University of Washington, priority 1991, dated 1992)
# Entries after “also recorded” stand apart in the source; their conditions may differ.
# What was measured:
# [1] = early work; cited from earlier work
# liver = conditions: cited from earlier work; for contrast enhancement: subsequent limited imaging experiments
# normal liver parenchyma [2] = tested on: normal liver parenchyma
# Experimental: Imaging experiments were performed with a General Electric CSI-II 2.0 T (85.6 Mhz proton resonant frequency) chemical shift imaging spectrometer (GE Medical Systems, Fremont, Calif.). The proton imaging sequence used was that of a standard pin echo 2DFT sequence that employed a single 3 mm slice thickness with four phase cycled signal acquisitions. […] Coronal images were obtained of the rats+ abdomen and thorax using a TR of 160 msec and a TE of 16 msec. A specially designed 53 mm outer diameter (130 mm long) imaging coil of the low-pass birdcage resonantor design was employed with a balanced-matched tuning network for all images. […]
# Signal intensity was measured by region-of-interest (ROI) analysis both for normal liver parenchyma, liver lesions and a corn oil standard. […] Signal intensity was measured over the center of the hepatic abscesses. Signal intensities were also determined for normal subcutaneous tissue in the area of the thoracic wall and for subcutaneous abscesses located in the anterior abdominal wall in rats with liver abscesses. Measured signal intensities (SI) were normalized to the intensity of the corn oil standard for all pre- and postcontrast images. Signal intensity enhancement was calculated according to the formula: (SI postcontrast-SI precontrast)/SI precontrast. […]
# [3] = tested on: normal subcutaneous tissue; assay: MRI enhancement in liver abscess rats: normal subcutaneous tissue; format: in vivo, Sprague-Dawley rats; conditions: for enhancement of normal subcutis (in words): i.v.
# [4] = in vitro
# normal liver tissue [5] = conditions: i.v. 0.04 mmol/kg, 30 minutes
# [6] = tested on: liver metastases (mammary adenocarcinoma R3230 AC); assay: MRI enhancement in rats with liver metastases: tumor; format: in vivo, Fischer 344 female rats; conditions: for visualization of tumor deposits: i.v.
# Experimental: The entire procedure was performed under sterile conditions. Four animals died within 48 hours following surgery.
# normal liver tissue [7] = conditions: gastric lavage, 0.05 mmol/kg Mn mesoporphyrin + […] mixed micelles, 4 hours
# [8] = solubility and stability in hydrophilic and lipophilic solvents
# Vx-2 tumor = assay: MRI signal enhancement, Vx-2 carcinoma model: tumor; format: in vivo, New Zealand White (NZW) rabbits; conditions: i.v. 0.04 mmol/kg, 30 minutes
# [9] = Deaths following the imaging experiment; format: in vivo, Sprague-Dawley rats; conditions: 5 rats per agent, i.v.; unclear whether due to contrast media or anesthesia
# Experimental: Pyrogenic liver abscesses were induced in Sprague-Dawley rats following the method of Weinsten, WM, 1975. Twelve female sprague-Dawley rats (250-300 g each) underwent midline laparotomy following intraperitoneal anesthesia with sodium pentobarbital (40-50 mg/kg), and a filtered bacterial inoculum of colonic contents was directly injected into the liver of each rat. Two animals died within 24 hours following surgery and were excluded from the study. The remaining 10 rats underwent MR imaging 4-6 days after surgery, as described below.
# These studies were done at an estimated 1/10 of the LD50 of protoporphyrin (Jackson et al, 1985).
# normal liver parenchyma [10] = assay: MRI enhancement in normal and liver abscess rats: normal liver parenchyma; format: in vivo, Sprague-Dawley rats
# liver abscess = assay: MRI enhancement in liver abscess rats: liver abscess; format: in vivo, Sprague-Dawley rats
# gall bladder = conditions: i.v. 0.04 mmol/kg, 30 minutes
# subcutaneous abscesses = assay: MRI enhancement in liver abscess rats: subcutaneous abscesses; format: in vivo, Sprague-Dawley rats; conditions: for enhancement of subcutaneous abscesses (in words): i.v.
# [11] = rat, in vivo
molecule,measurement,setting,value
C=CC1=C(C)c2cc3[nH]c(cc4nc(cc5[nH]c(cc1n2)c(C)c5CCC(=O)O)C(CCC(=O)O)=C4C)c(C)c3C=C [protoporphyrin],solubility,[1],poor solubility
same,toxicity,[1],apparent high toxicity
same,T1 effects in the liver,liver; early work,tissue specific T1(inversion time) effects were clearly demonstrated in the liver
C=CC1=C(C)c2cc3[n-]c(cc4[n-]c(cc5nc(cc1n2)C(C)=C5C=C)c(C)c4CCC(=O)[O-])c(CCC(=O)[O-])c3C.[H+].[H+].[Mn+2] [manganese protoporphyrin],contrast enhancement,liver,caused hepatic and biliary contrast enhancement
O=C([O-])CN(CCN(CC(=O)[O-])CC(=O)[O-])CCN(CC(=O)[O-])C(COCc1ccccc1)C(=O)[O-].[Gd+3] (stereo not drawn) [Gd-BOPTA],hepatic excretion and bile duct opacification,liver; in vivo,undergoes hepatic excretion and opacifies the bile ducts
manganese (III) mesoporphyrin [Mn mesoporphyrin],tumor-to-liver contrast,"liver metastases; gastric, 0.05 mmol/kg + […] mixed micelles, single observation vs control animal",significant increase of the tumor-to-liver contrast
same,"enhancement properties, oral vs intravenous","liver metastases; tumor-to-liver contrast, oral administration",substantially equivalent to the properties established for intravenous administration
same,increase of signal intensity of normal liver parenchyma over baseline,"normal liver parenchyma [2]; 24 and 48 hrs, n=3 rats, may be artificially high",30%
same,maximum enhancement of normal liver parenchyma,"normal liver parenchyma [2]; i.v. 0.035 mmol/kg, over 60 min",70%
same,enhancement of normal subcutis (in words),[3],did not yield enhancement; also recorded: did not enhance either subcutis or subcutaneous abscesses
same,binding by cholestyramine,[4],cholestyramine binds Mn mesoporphyrin
same,enhancement of the liver (MRI signal intensity),normal liver tissue [5],89.6+/-17.5%
same,delayed tumor enhancement,"[6]; 24 and 48 hrs, n=3 rats",no delayed tumor enhancement was observed
same,visualization of tumor deposits,[6],made visualization of tumor deposits extremely simple
same,effect on signal intensity of metastases,"[6]; i.v. 0.035 mmol/kg, center and periphery of tumors, over 60 min, n=6 rats",did not significantly affect the signal intensity of metastases
same,enhancement of normal liver tissue over baseline,normal liver tissue [7],65%
same,solubility in K2PO4 / water-based buffer,[8],improved solubility in high pH solutions
same,enhancement of the tumor tissue (MRI signal intensity),Vx-2 tumor,12.7+/-12.1%
same,statistical significance of tumor enhancement,Vx-2 tumor,not statistically significant
same,death following the imaging experiment,[9],one
same,contrast enhancement of normal hepatic tissue,"liver; T1 weighted MRI, non-toxic doses",contrast enhancement of normal hepatic tissue leading to improved diagnostic visualization of tumors and abscesses
same,liver enhancement,"normal liver parenchyma [10]; i.v. 0.035-0.045 mmol/kg, 10 minutes, p less than 0.01",43%
same,prolonged enhancement of normal liver parenchyma,"normal liver parenchyma [10]; i.v., over the observation period of 60 min, significant",30-50%
same,enhancement of liver abscesses (in words),"liver abscess; i.v., any time",not enhanced at any time
same,enhancement of the gall bladder (MRI signal intensity),gall bladder,373+/-92.3%
same,enhancement of subcutaneous abscesses (in words),subcutaneous abscesses,did not yield enhancement; also recorded: did not enhance either subcutis or subcutaneous abscesses
manganese uroporphyrin,contrast enhancement,liver,produced dramatic contrast effects in the kidneys and urine
"O=S(=O)([O-])c1ccc(-c2c3nc(c(-c4ccc(S(=O)(=O)[O-])cc4)c4ccc([nH]4)c(-c4ccc(S(=O)(=O)[O-])cc4)c4nc(c(-c5ccc(S(=O)(=O)[O-])cc5)c5ccc2[nH]5)C=C4)C=C3)cc1.[Mn+4] [Mn TPPS4, manganese tetrakis-(4-sulfonatophenyl)porphyrin, reference compound]",enhancement of normal subcutis (in words),[3],enhanced both subcutis and subcutaneous abscesses
same,enhancement of normal subcutaneous tissue,"[3]; i.v. Mn TPPS4, 60 minutes, p less than 0.05",56%
same,visualization of tumor deposits,[6],failed to help in distinguishing the site of the tumor deposits
same,enhancement of liver and tumor / lesion discrimination,[6]; i.v. Mn-TPPS4,enhanced both liver and tumor thus providing no discrimination of the lesion
same,death following the imaging experiment,[9],One rat
same,enhancement of normal liver parenchyma,"normal liver parenchyma [10]; i.v. Mn TPPS4, 10 minutes post injection, p greater than 0.05",43%
same,contrast between normal and diseased tissue,liver abscess; i.v.,"enhanced both normal liver and abscesses, thus providing no improved contrast between normal and diseased tissue"
same,enhancement of liver abscess,"liver abscess; i.v. Mn TPPS4, 10 minutes post injection, p less than 0.05",63%
same,skin discoloration,[11],green discoloration of the skin
same,enhancement of subcutaneous abscesses (in words),subcutaneous abscesses,enhanced both subcutis and subcutaneous abscesses
same,enhancement of subcutaneous abscesses,"subcutaneous abscesses; i.v. Mn TPPS4, 60 minutes, p greater than 0.05",88%
"CNC[C@H](O)[C@@H](O)[C@H](O)[C@H](O)CO.CNC[C@H](O)[C@@H](O)[C@H](O)[C@H](O)CO.O=C([O-])CN(CCN(CC(=O)[O-])CC(=O)O)CCN(CC(=O)[O-])CC(=O)O.[Gd+3] [Gd-DTPA, gadopentetate dimeglumine]",contrast enhancement of normal liver and focal liver lesions,liver; intravenous,"nonselectively enhances either normal liver, focal liver lesions or both"
